In ChEMBL document CHEMBL3885861, “Open TG-GATES”:

Species on record: Rattus norvegicus
Assay: Open TG-GATES - Regimen: Single
Type: toxicity, organism-based, Sprague-Dawley
Design: regimen Single, gender Male, age 6 weeks
Details: in vivo, po, 0 mg/kg, route gavage, dose level Control; for APTT / Bas / Eos / Fbg / Hb / Ht / Lym / MCH / MCHC / MCV / Mono / Neu / PT / Plat / RBC / Ret / WBC: tissue Blood; for KIDNEY_L / KIDNEY_R / KIDNEY_TOTAL: tissue Kidney; for LIVER: tissue Liver; for A/G / ALP / ALT / AST / BUN / CRE / Ca / Cl / DBIL / GLC / IP / K / LDH / Na / PL / RALB / TBIL / TC / TG / TP / gamma-GTP: tissue Plasma

## CCCCNC(=O)NS(=O)(=O)c1ccc(C)cc1 [TOLBUTAMIDE]
3 h
  TERMINAL_BW: 203.9 g
  APTT: 16.5 s
  Bas: 0%
  Eos: 0.8%
  Fbg: 286.6 mg/dL
  Hb: 13.7 g/dL
  Ht: 42.1%
  Lym: 78.2%
  MCH: 21 pg
  MCHC: 32.5%
  MCV: 64.8 fL
  Mono: 2.8%
  Neu: 18%
  PT: 12.9 s
  Plat: 128.5 x10_4/uL
  RBC: 649.4 x10_4/ul
  Ret: 8.5%
  WBC: 86 x10_2/uL
  KIDNEY_L: 0.9 g
  KIDNEY_R: 0.9 g
  KIDNEY_TOTAL: 1.8 g
  LIVER: 9.1 g
  A/G: 0.9
  ALP: 1445.2 IU/L
  ALT: 43.8 IU/L
  AST: 73.6 IU/L
  BUN: 9.8 mg/dL
  CRE: 0.2 mg/dL
  Ca: 11 mg/dL
  Cl: 106.8 meq/L
  DBIL: 0.006 mg/dL
  GLC: 175 mg/dL
  IP: 8.9 mg/dL
  K: 4.1 meq/L
  LDH: 52.4 IU/L
  Na: 141.6 meq/L
  PL: 145 mg/dL
  RALB: 2.5 g/dL
  TBIL: 0.078 mg/dL
  TC: 80.8 mg/dL
  TG: 54.6 mg/dL
  TP: 5.3 g/dL
  gamma-GTP: 1 IU/L
6 h
  TERMINAL_BW: 204 g
  APTT: 18.7 s
  Bas: 0.2%
  Eos: 1%
  Fbg: 279.6 mg/dL
  Hb: 13.6 g/dL
  Ht: 41.9%
  Lym: 80.4%
  MCH: 20.6 pg
  MCHC: 32.5%
  MCV: 63.6 fL
  Mono: 2%
  Neu: 15.8%
  PT: 13.1 s
  Plat: 131.1 x10_4/uL
  RBC: 659.4 x10_4/ul
  Ret: 8.1%
  WBC: 84.4 x10_2/uL
  KIDNEY_L: 0.9 g
  KIDNEY_R: 0.9 g
  KIDNEY_TOTAL: 1.9 g
  LIVER: 8.8 g
  A/G: 0.9
  ALP: 1197.4 IU/L
  ALT: 36.6 IU/L
  AST: 66.4 IU/L
  BUN: 8.4 mg/dL
  CRE: 0.2 mg/dL
  Ca: 10.7 mg/dL
  Cl: 105.6 meq/L
  DBIL: 0.01 mg/dL
  GLC: 172.6 mg/dL
  IP: 9.5 mg/dL
  K: 4.1 meq/L
  LDH: 49 IU/L
  Na: 141.2 meq/L
  PL: 138.4 mg/dL
  RALB: 2.5 g/dL
  TBIL: 0.078 mg/dL
  TC: 78.8 mg/dL
  TG: 46.6 mg/dL
  TP: 5.2 g/dL
  gamma-GTP: 1 IU/L
9 h
  TERMINAL_BW: 202.2 g
  APTT: 15.8 s
  Bas: 0.2%
  Eos: 1.2%
  Fbg: 284 mg/dL
  Hb: 13.3 g/dL
  Ht: 40.1%
  Lym: 75.6%
  MCH: 21 pg
  MCHC: 33%
  MCV: 63.6 fL
  Mono: 2%
  Neu: 20.8%
  PT: 13.3 s
  Plat: 121 x10_4/uL
  RBC: 633 x10_4/ul
  Ret: 8.3%
  WBC: 72.5 x10_2/uL
  KIDNEY_L: 0.9 g
  KIDNEY_R: 1 g
  KIDNEY_TOTAL: 1.9 g
  LIVER: 7.9 g
  A/G: 0.9
  ALP: 1161.6 IU/L
  ALT: 38.6 IU/L
  AST: 73.8 IU/L
  BUN: 7.6 mg/dL
  CRE: 0.1 mg/dL
  Ca: 10.7 mg/dL
  Cl: 106.2 meq/L
  DBIL: 0 mg/dL
  GLC: 166.8 mg/dL
  IP: 9.4 mg/dL
  K: 4.3 meq/L
  LDH: 60.8 IU/L
  Na: 141 meq/L
  PL: 132.8 mg/dL
  RALB: 2.5 g/dL
  TBIL: 0.078 mg/dL
  TC: 78.4 mg/dL
  TG: 33.2 mg/dL
  TP: 5.2 g/dL
  gamma-GTP: 1 IU/L
24 h
  TERMINAL_BW: 220 g
  APTT: 17.4 s
  Bas: 0.2%
  Eos: 1.2%
  Fbg: 296 mg/dL
  Hb: 13.3 g/dL
  Ht: 40.5%
  Lym: 74.2%
  MCH: 21.3 pg
  MCHC: 32.9%
  MCV: 64.9 fL
  Mono: 3%
  Neu: 20.4%
  PT: 12.9 s
  Plat: 123.6 x10_4/uL
  RBC: 624.8 x10_4/ul
  Ret: 7.7%
  WBC: 89 x10_2/uL
  KIDNEY_L: 1 g
  KIDNEY_R: 1 g
  KIDNEY_TOTAL: 2 g
  LIVER: 10.3 g
  A/G: 0.9
  ALP: 1544.6 IU/L
  ALT: 44.6 IU/L
  AST: 67 IU/L
  BUN: 15.2 mg/dL
  CRE: 0.2 mg/dL
  Ca: 11.2 mg/dL
  Cl: 104.8 meq/L
  DBIL: 0.01 mg/dL
  GLC: 171.2 mg/dL
  IP: 8.3 mg/dL
  K: 4 meq/L
  LDH: 78 IU/L
  Na: 141.6 meq/L
  PL: 162.4 mg/dL
  RALB: 2.6 g/dL
  TBIL: 0.066 mg/dL
  TC: 89.8 mg/dL
  TG: 85.4 mg/dL
  TP: 5.6 g/dL
  gamma-GTP: 1.2 IU/L
